{"source": "patent US20200155487A1", "about": "“Treatment of obesity and its complications” (CymaBay Therapeutics, Inc., priority 2018, published 2020)", "key": {"[1]": {"test_system": "dyslipidemic overweight patients", "settings": "cited from earlier work; for reduction of alkaline phosphatase: control group 4%"}, "[2]": {"test_system": "patients with type 2 diabetes", "settings": "in SNAC carrier, 20 and 40 mg/day; cited from earlier work"}, "[3]": {"test_system": "women and men", "settings": "human, in vivo; cited from earlier work"}, "[4]": {"test_system": "DIO-NASH C57BL/6J mouse", "assay": "Diet-induced obese mouse model of NASH (DIO-NASH), 12 weeks dosing", "type": "in vivo", "settings": "SD in parentheses", "source_text": "The diet-induced obese mouse model of NASH (DIO-NASH) uses the C57BL/6J mouse fed a high fat diet that results in NAFLD/NASH. A protocol is described in Kristiansen et al., “Obese diet-induced mouse models of nonalcoholic steatohepatitis—tracking disease by liver biopsy”, World J. Hepatol., 8(16), 673-684 (2016). Male C57BL/6J mice were fed an atherogenic 40% high fat diet (AMLN diet, D09100301, Research Diet, US—40 kcal % fat (18% trans fat), 40 kcal % carbohydrate (20% fructose), 2% cholesterol) for 43 weeks before the start of the trial, to induce NAFLD/NASH. At week −3, the mice underwent a liver biopsy, which was scored for steatosis and fibrosis; mice with fibrosis stage <1 and steatosis score <2 were deselected prior to randomization. A stratified randomization into treatment groups was performed according to liver Collal quantification. […] At 12 weeks, analyses included body weight, plasma ALT, AST, triglycerides, and total cholesterol; liver triglycerides and total cholesterol; and NAS, fibrosis, Collal, galectin-3, and steatosis and fibrosis scores from a liver biopsy. Results are given in the table below: standard deviations are in parentheses: […]"}, "[5]": {"test_system": "obese subjects", "assay": "Example 2 clinical study, single agent seladelpar in obese subjects, 52 weeks", "type": "in vivo, human", "settings": "10, 20, and 50 mg/day for 52 weeks", "source_text": "Subjects are permitted their usual other medications (e.g. antidiabetic medications such as metformin or […]) but not glitazones, PPAR agonists, OCA, or similar medications. […] The primary efficacy outcome is the change in body weight. Other outcome measures related to the complications of obesity include change in baseline in liver fat content at 12 weeks, as measured by magnetic resonance imaging-derived proton density fat fraction (MRI-PDFF), histological improvement in NASH and fibrosis, assessed by comparing liver biopsy samples at baseline and at 52 weeks after the start of dosing; MRI-PDFF at 26 and 52 weeks; and measurements of total cholesterol, HDL-C, LDL-C, VLDL-C, TGs, apoB, and liver transaminases. The subjects also maintain health diaries, which are reviewed at each visit."}, "[6]": {"test_system": "Alms1 mutant (foz/foz) mice", "settings": "mouse, in vivo; cited from earlier work"}, "[7]": {"test_system": "NAFLD/NASH", "settings": "in vivo; cited from earlier work"}, "[8]": {"settings": "compared to placebo, alone and with atorvastatin, 8 weeks"}}}
{"compound": "CC(C)c1c(C(=O)Nc2ccccc2)c(-c2ccccc2)c(-c2ccc(F)cc2)n1CC[C@@H](O)C[C@@H](O)CC(=O)O", "note": "[ATV, reference compound]", "values": [{"measurement": "increase of γ-glutamyl transpeptidase", "setting": "[1]; 8 weeks, atorvastatin 20 mg", "value": 2, "unit": "%"}, {"measurement": "reduction of alkaline phosphatase", "setting": "[1]; 8 weeks", "value": 6, "unit": "%"}]}
{"compound": "semaglutide", "values": [{"measurement": "efficacy of once/day oral dosing", "setting": "[2]", "value": "efficacious"}]}
{"compound": "CCc1ccc(CCOc2ccc(CC3SC(=O)NC3=O)cc2)nc1", "note": "(stereo not shown) [pioglitazone]", "values": [{"measurement": "associated risks", "setting": "[3]", "value": "significantly increased risk of weight gain, edema, congestive heart failure, and osteoporotic fractures"}]}
{"compound": "CCO[C@H](COc1ccc(C(F)(F)F)cc1)CSc1ccc(OCC(=O)O)c(C)c1", "note": "[Seladelpar, (R)-2-(4-((2-ethoxy-3-(4-(trifluoromethyl)phenoxy)propyl)-sulfanyl)-2-methylphenoxy)acetic acid]", "values": [{"measurement": "NAS post-treatment", "setting": "[4]; after 12 weeks dosing", "value": "3.9 (0.5)"}, {"measurement": "Liver TC", "setting": "[4]; at 12 weeks", "value": "10 (3) mg/g liver"}, {"measurement": "Liver TG", "setting": "[4]; at 12 weeks", "value": "75 (20) mg/g liver"}, {"measurement": "Plasma TC", "setting": "[4]; at 12 weeks", "value": "257 (40) mg/dL"}, {"measurement": "Plasma TG", "setting": "[4]; at 12 weeks", "value": "38 (20) mg/dL"}, {"measurement": "NAS pre-treatment", "setting": "[4]; baseline biopsy before dosing", "value": "6.0 (0.8)"}, {"measurement": "Sirius red stain", "setting": "[4]; liver biopsy at 12 weeks", "value": "2.4 (1.8) %"}, {"measurement": "ALT", "setting": "[4]; plasma, at 12 weeks", "value": "107 (65) U/L"}, {"measurement": "AST", "setting": "[4]; plasma, at 12 weeks", "value": "162 (59) U/L"}, {"measurement": "improvement in obesity and complications (body weight, MRI-PDFF, liver biopsy, NAS score)", "setting": "[5]", "value": "dose-related improvement"}, {"measurement": "reduction of γ-glutamyl transpeptidase", "setting": "[1]; 8 weeks, control group 3%", "value": "24-28%"}, {"measurement": "reduction of alkaline phosphatase", "setting": "[1]; 8 weeks", "value": "32-43%"}, {"measurement": "reduction of apoB100", "setting": "[1]; compared to placebo, 50 or 100 mg alone or with atorvastatin 20 mg, 8 weeks, P<0.05", "value": "20-38%"}, {"measurement": "raise of HDL-C", "setting": "[1]; [8]", "value": "1-12%"}, {"measurement": "reduction of LDL", "setting": "[1]; [8]", "value": "18-43%"}, {"measurement": "reduction of free fatty acids", "setting": "[1]; [8]", "value": "16-28%"}, {"measurement": "reduction of high-sensitivity C-reactive protein", "setting": "[1]; [8]", "value": "43-72%"}, {"measurement": "reduction of non-HDL-C", "setting": "[1]; [8]", "value": "18-41%"}, {"measurement": "reduction of triglycerides", "setting": "[1]; [8]", "value": "26-30%"}, {"measurement": "depletion of small dense LDL particles", "setting": "[1]; in vivo", "value": 92, "unit": "%"}, {"measurement": "reduction of the percentage of subjects meeting the criteria for metabolic syndrome", "setting": "[1]; in vivo", "value": "> 2", "unit": "fold"}, {"measurement": "safety and tolerability", "setting": "[1]; in vivo", "value": "safe and generally well-tolerated"}, {"measurement": "NASH pathology (hepatic steatosis, inflammation, fibrosis)", "setting": "[6]", "value": "improves NASH pathology"}]}
{"compound": "CCCCCCCCCCC[C@@H](C[C@@H]1OC(=O)[C@H]1CCCCCC)OC(=O)[C@H](CC(C)C)NC=O", "note": "[orlistat]", "values": [{"measurement": "benefit in NAFLD/NASH compared to weight loss alone", "setting": "[7]", "value": "no significant benefit"}]}
